Measured values taken from publication PMC9090415, “Discovery of small molecule inhibitors of Plasmodium falciparum apicoplast DNA polymerase” (Journal of Enzyme Inhibition and Medicinal Chemistry, 2022).
Like-named read-outs stand apart in the source and are kept apart here.

Target: P. falciparum apicoplast DNA polymerase (Pf-apPOL) (Plasmodium falciparum, UniProt Q8ILY1)
Assay: Fluorescence-based high-throughput DNA polymerase assay (molecular beacon), primary screen and dose-response
Assay type: biochemical
Conditions: for DNA Pol: 90 min, 10 µM; for % inhibition apPOL 180' 2.5 / % inhibition apPOL 180' 5 / % inhibition apPOL 180' 10 / % inhibition apPOL 180' 20 / % inhibition apPOL 180' 40 / % inhibition apPOL 180' 80: read at 180'
How it was run: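 Single-point screening used 10 µM compound with 20 nM polymerase, 20 nM hairpin substrate and 6 µM dNTPs for 90 min at 25 °C. Confirmatory titrations (2.5–80 µM) followed fluorescence at three times, and IC50 was derived from a fit including a cooperativity term n.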

[1] = read-out: IC50 Pf-apPOL, Table 2
[2] = supplemental file 2, sheet IC50 nontoxic compounds, Pf-apPOL

Sequence of P. falciparum apicoplast DNA polymerase (Pf-apPOL) (Q8ILY1 entry or part of it): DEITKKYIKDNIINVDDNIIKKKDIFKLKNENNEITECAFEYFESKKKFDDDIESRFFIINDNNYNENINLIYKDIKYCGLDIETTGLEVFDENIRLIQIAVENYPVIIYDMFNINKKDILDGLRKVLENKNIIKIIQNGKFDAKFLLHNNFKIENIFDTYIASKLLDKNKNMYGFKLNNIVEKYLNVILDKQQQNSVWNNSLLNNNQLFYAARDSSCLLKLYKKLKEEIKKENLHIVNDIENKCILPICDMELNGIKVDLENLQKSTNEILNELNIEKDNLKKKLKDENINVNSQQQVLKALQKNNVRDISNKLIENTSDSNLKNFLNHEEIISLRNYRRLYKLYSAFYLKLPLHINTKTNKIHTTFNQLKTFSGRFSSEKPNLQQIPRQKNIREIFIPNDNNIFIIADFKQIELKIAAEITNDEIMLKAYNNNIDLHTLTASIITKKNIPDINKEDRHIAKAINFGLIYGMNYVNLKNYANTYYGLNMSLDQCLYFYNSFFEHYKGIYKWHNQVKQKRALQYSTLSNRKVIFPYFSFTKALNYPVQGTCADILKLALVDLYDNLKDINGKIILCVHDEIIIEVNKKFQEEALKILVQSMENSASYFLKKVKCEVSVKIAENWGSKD

Cc1ccc2c(C(=O)NCCc3cccnc3)cc(NC(=O)C(C)C)cc2n1 [KU0206096]
DNA Pol ("DNA Pol" of the 186 hits list (screen value)): 22
% inhibition Apo pol 10' (DRC-1, concentration 2.5): 2.289%
% inhibition Apo pol 10' (DRC-1, concentration 5): 10.1779%
% inhibition Apo pol 10' (DRC-1, concentration 10): 28.6368%
% inhibition Apo pol 10' (DRC-1, concentration 20): 37.57%
% inhibition Apo pol 10' (DRC-1, concentration 40): 75.2311%
% inhibition Apo pol 10' (DRC-1, concentration 80): 89.4827%
% inhibition Apol 90' (DRC-1, concentration 2.5): -0.2653%
% inhibition Apol 90' (DRC-1, concentration 5): 3.264%
% inhibition Apol 90' (DRC-1, concentration 10): 15.2748%
% inhibition Apol 90' (DRC-1, concentration 20): 20.9182%
% inhibition Apol 90' (DRC-1, concentration 40): 58.3993%
% inhibition Apol 90' (DRC-1, concentration 80): 83.2702%
% inhibition apPOL 180' (DRC-1, concentration 2.5): -4.525%
% inhibition apPOL 180' (DRC-1, concentration 5): -3.235%
% inhibition apPOL 180' (DRC-1, concentration 10): 5.405%
% inhibition apPOL 180' (DRC-1, concentration 20): 7.166%
% inhibition apPOL 180' (DRC-1, concentration 40): 41.4073%
% inhibition apPOL 180' (DRC-1, concentration 80): 75.1879%
% inhibition Apo pol 5' (DRC-2, concentration 2.5): -0.312%
% inhibition Apo pol 5' (DRC-2, concentration 5): 5.56%
% inhibition Apo pol 5' (DRC-2, concentration 10): 24%
% inhibition Apo pol 5' (DRC-2, concentration 20): 40%
% inhibition Apo pol 5' (DRC-2, concentration 40): 49%
% inhibition Apo pol 5' (DRC-2, concentration 80): 49%
% inhibition Apol 40' (DRC-2, concentration 2.5): 1.82%
% inhibition Apol 40' (DRC-2, concentration 5): 5.58%
% inhibition Apol 40' (DRC-2, concentration 10): 24%
% inhibition Apol 40' (DRC-2, concentration 20): 42%
% inhibition Apol 40' (DRC-2, concentration 40): 62%
% inhibition Apol 40' (DRC-2, concentration 80): 70%
% inhibition ApPOL 90' (DRC-2, concentration 2.5): 1.09%
% inhibition ApPOL 90' (DRC-2, concentration 5): 5.45%
% inhibition ApPOL 90' (DRC-2, concentration 10): 21%
% inhibition ApPOL 90' (DRC-2, concentration 20): 39%
% inhibition ApPOL 90' (DRC-2, concentration 40): 63%
% inhibition ApPOL 90' (DRC-2, concentration 80): 75%
% inhibition apPOL 180' (DRC-2, concentration 2.5): -1.29%
% inhibition apPOL 180' (DRC-2, concentration 5): 2.66%
% inhibition apPOL 180' (DRC-2, concentration 10): 13%
% inhibition apPOL 180' (DRC-2, concentration 20): 28%
% inhibition apPOL 180' (DRC-2, concentration 40): 57%
% inhibition apPOL 180' (DRC-2, concentration 80): 78%
DNA Pol (primary screen value, DNA Pol): 22

CCOc1nc2cccc(C(=O)OC(C)OC(=O)OC3CCCCC3)c2n1Cc1ccc(-c2ccccc2-c2nnn[nH]2)cc1 (centres unmarked) [Molecule 94]
IC50 [1]: 7.6 ± 0.6 µM
IC50 [2]: 7.66 µM

CC(=O)Nc1cc(C(=O)c2cccs2)nn(-c2ccc(Cl)cc2)c1=O [KU0267905]
DNA Pol (186 hits, DNA Pol (screen value), unit not given): 68
DNA Pol ('DNA Pol' (screen value), unit not given): 68
% inhibition Apo pol 10' 2.5 (DRC-1, read at 10', concentration 2.5): -1.115%
% inhibition Apo pol 10' 5 (DRC-1, read at 10', concentration 5): 9.678%
% inhibition Apo pol 10' 10 (DRC-1, read at 10', concentration 10): 23.8402%
% inhibition Apo pol 10' 20 (DRC-1, read at 10', concentration 20): 30.1491%
% inhibition Apo pol 10' 40 (DRC-1, read at 10', concentration 40): 60.7427%
% inhibition Apo pol 10' 80 (DRC-1, read at 10', concentration 80): 68.442%
% inhibition Apol 90' 2.5 (DRC-1, read at 90', concentration 2.5): -1.383%
% inhibition Apol 90' 5 (DRC-1, read at 90', concentration 5): -2.969%
% inhibition Apol 90' 10 (DRC-1, read at 90', concentration 10): 7.904%
% inhibition Apol 90' 20 (DRC-1, read at 90', concentration 20): 14.4381%
% inhibition Apol 90' 40 (DRC-1, read at 90', concentration 40): 45.4354%
% inhibition Apol 90' 80 (DRC-1, read at 90', concentration 80): 70.7976%
% inhibition apPOL 180' 2.5 (DRC-1, concentration 2.5): -1.959%
% inhibition apPOL 180' 5 (DRC-1, concentration 5): -7.949%
% inhibition apPOL 180' 10 (DRC-1, concentration 10): -1.249%
% inhibition apPOL 180' 20 (DRC-1, concentration 20): 2.642%
% inhibition apPOL 180' 40 (DRC-1, concentration 40): 28.3479%
% inhibition apPOL 180' 80 (DRC-1, concentration 80): 62.799%
% inhibition Apo pol 5' (DRC-2, concentration 2.5): 7%
% inhibition Apol 40' (DRC-2, concentration 5): 7%
% inhibition Apol 40' (DRC-2, concentration 80): 52%
% inhibition ApPOL 90' (DRC-2, concentration 5): 4%
% inhibition apPOL 180' (DRC-2, concentration 10): 4%
% inhibition apPOL 180' (DRC-2, concentration 80): 52%
% inhibition Apo pol 5' 2.5 (DRC-2, read at 5', concentration 2.5): 7%
% inhibition Apo pol 5' 5 (DRC-2, read at 5', concentration 5): 11%
% inhibition Apo pol 5' 10 (DRC-2, read at 5', concentration 10): 21%
% inhibition Apo pol 5' 20 (DRC-2, read at 5', concentration 20): 29%
% inhibition Apo pol 5' 40 (DRC-2, read at 5', concentration 40): 40%
% inhibition Apo pol 5' 80 (DRC-2, read at 5', concentration 80): 36%
% inhibition Apol 40' 2.5 (DRC-2, read at 40', concentration 2.5): 4.64%
% inhibition Apol 40' 5 (DRC-2, read at 40', concentration 5): 7%
% inhibition Apol 40' 10 (DRC-2, read at 40', concentration 10): 15%
% inhibition Apol 40' 20 (DRC-2, read at 40', concentration 20): 25%
% inhibition Apol 40' 40 (DRC-2, read at 40', concentration 40): 44%
% inhibition Apol 40' 80 (DRC-2, read at 40', concentration 80): 52%
% inhibition ApPOL 90' 2.5 (DRC-2, read at 90', concentration 2.5): 3.39%
% inhibition ApPOL 90' 5 (DRC-2, read at 90', concentration 5): 4%
% inhibition ApPOL 90' 10 (DRC-2, read at 90', concentration 10): 12%
% inhibition ApPOL 90' 20 (DRC-2, read at 90', concentration 20): 19%
% inhibition ApPOL 90' 40 (DRC-2, read at 90', concentration 40): 42%
% inhibition ApPOL 90' 80 (DRC-2, read at 90', concentration 80): 55%
% inhibition apPOL 180' 2.5 (DRC-2, concentration 2.5): -1.41%
% inhibition apPOL 180' 5 (DRC-2, concentration 5): 0.65%
% inhibition apPOL 180' 10 (DRC-2, concentration 10): 4%
% inhibition apPOL 180' 20 (DRC-2, concentration 20): 9%
% inhibition apPOL 180' 40 (DRC-2, concentration 40): 31%
% inhibition apPOL 180' 80 (DRC-2, concentration 80): 52%

COc1ccc(CNC(=O)Cn2nc3c(c2NC(=O)Cc2cccs2)CSC3)cc1 [Molecule 55]
IC50 [1]: 10 ± 2 µM
IC50 [2]: 10.5 µM
